Experimental data: patent US10646427B2, “Cosmetic compositions comprising spiculisporic acid and an ester of fatty acid and(poly)glycerol optionally polyoxyalkylenated” (L'OREAL, priority 2013, dated 2020)

Tested on: reconstructed Episkin J13 skin model
Assay: Episkin Peeling test (detachment of corneocytes measured by dosage of proteins)
Assay type: cell-based
Details: for desquamating efficacy (detachment of corneocytes) compared to 30% glycolic acid reference: 10 min treatment
Method: The Episkin Peeling test measures the detachment of corneocytes of the reconstructed Episkin J13 skin model. At this stage of maturation, the epidermis has a well differentiated stratum corneum (SC).
The sample is treated for 10 minutes with the control or test solution. The sample is taken and placed on the wall of a tube; its surface is then washed with a swab. The washing solution is filtered to preserve only the detached corneocytes. Their presence is measured by a dosage of proteins with the BCA Kit (PIERCE no. 23225).
The reference molecule is glycolic acid (AG). This is one of the compounds used in peeling at rates of occasionally up to 70%. It is applied for short times on the order of a few minutes and then neutralised.
The rate of 30% was used because it allows for good response dynamics with a short application time of 10 min.
Three Episkin batches are used for each study (n=3 per batch and per condition).
The evaluation of the raw materials (MP) is carried out by comparing the results of the MP to those obtained with 30% AG. The MP is effective if it reaches the level of the reference.
They were immersed in water. Spiculisporic acid was salified with potassium (KOH).
The dosage of free proteins, measured by DO, is to proportional to the quantity of corneocytes extracted, and thus to desquamation.

## CCCCCCCCCCC(C(=O)O)C1(C(=O)O)CCC(=O)O1 (stereo not shown) [Spiculisporic acid K+, 4,5-dicarboxy-4-pentadecanolide]
1% in water, salified with KOH
  desquamating efficacy (detachment of corneocytes) compared to 30% glycolic acid reference: no effect on the detachment of corneocytes
1% in water, salified with KOH, listed as spiculisporic acid
  desquamating efficacy (detachment of corneocytes) compared to 30% glycolic acid reference: absence of desquamation

## O=C(O)CO [AG, glycolic acid, reference compound]
10%, 30% and 50%
  detachment of corneocytes measured by dosage of proteins (FIG. 1): dose-dependent effect

## CCCCCCCC(=O)OCC(O)CO (stereo not shown) [GMCY, Glyceryl caprylate]
5% in water
  desquamating efficacy (detachment of corneocytes) compared to 30% glycolic acid reference: desquamating efficacy (almost) reaching that of the glycolic acid reference at 30%
5% in water, listed as glyceryl caprylate
  desquamating efficacy (detachment of corneocytes) compared to 30% glycolic acid reference: positive, but not significant, desquamation relative to the positive control

## O=C(O)CC(O)(CC(=O)O)C(=O)O [citric acid, Citric acid, reference compound]
10% in water
  desquamating efficacy (detachment of corneocytes) compared to 30% glycolic acid reference: does not reach the effect of the reference
30% in water
  desquamating efficacy (detachment of corneocytes) compared to 30% glycolic acid reference: reaches the efficacy level of the reference
